The values that follow come from patent US9682925B2, “Cyclopropaneamine compound” (TAKEDA PHARMACEUTICAL COMPANY LIMITED, priority 2011, dated 2017).

Holding throughout (type): biochemical
In assay [1] the target is T1, MAO-A (Homo sapiens, UniProt P21397).
T1 construct: purchased Sigma-Aldrich Co. LLC
T1 sequence (P21397 1-527): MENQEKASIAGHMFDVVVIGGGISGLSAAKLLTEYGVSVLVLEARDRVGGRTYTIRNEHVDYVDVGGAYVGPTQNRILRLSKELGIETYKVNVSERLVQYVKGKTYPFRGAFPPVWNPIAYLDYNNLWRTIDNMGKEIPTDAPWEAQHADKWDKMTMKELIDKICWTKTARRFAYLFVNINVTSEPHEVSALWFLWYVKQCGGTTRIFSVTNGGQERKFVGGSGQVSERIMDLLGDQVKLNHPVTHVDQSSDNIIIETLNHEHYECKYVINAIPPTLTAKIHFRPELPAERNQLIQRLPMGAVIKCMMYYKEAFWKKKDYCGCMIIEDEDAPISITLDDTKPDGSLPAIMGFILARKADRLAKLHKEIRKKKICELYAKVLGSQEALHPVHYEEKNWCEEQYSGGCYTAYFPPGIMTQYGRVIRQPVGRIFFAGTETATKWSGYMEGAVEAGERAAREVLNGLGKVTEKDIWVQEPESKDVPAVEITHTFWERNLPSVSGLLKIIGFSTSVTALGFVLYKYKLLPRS
Description: Measurement of MAO-A inhibitory activity (MAO-Glo Assay). The essentials:
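Luminescent MAO-Glo read-out: % inhibition computed from counts relative to enzyme-only control and enzyme-free blank. Compound and 400 ng MAO-A in HEPES pH 7.5 with 5% glycerol stood 10 min at room temperature before MAO substrate (160 μM stock) started a 60 min reaction.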

Assay [2] concerns the target T2, MAO-B (Homo sapiens, UniProt P27338).
T2 construct: purchased Sigma-Aldrich Co. LLC
T2 sequence (P27338 1-520): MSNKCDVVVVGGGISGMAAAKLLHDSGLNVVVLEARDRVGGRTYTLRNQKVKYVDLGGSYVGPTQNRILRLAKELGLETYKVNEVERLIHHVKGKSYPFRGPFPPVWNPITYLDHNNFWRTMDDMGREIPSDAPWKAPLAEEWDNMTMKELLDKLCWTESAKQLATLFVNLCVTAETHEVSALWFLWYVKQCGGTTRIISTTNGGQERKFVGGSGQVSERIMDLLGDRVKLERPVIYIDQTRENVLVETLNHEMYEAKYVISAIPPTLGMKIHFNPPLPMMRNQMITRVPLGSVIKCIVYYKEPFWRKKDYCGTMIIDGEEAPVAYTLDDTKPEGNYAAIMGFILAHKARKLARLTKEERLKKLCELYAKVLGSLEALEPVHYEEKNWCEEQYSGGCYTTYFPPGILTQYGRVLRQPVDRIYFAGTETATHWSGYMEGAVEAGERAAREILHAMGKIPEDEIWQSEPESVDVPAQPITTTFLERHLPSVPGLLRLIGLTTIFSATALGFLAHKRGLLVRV
Put plainly: Measurement of MAO-B inhibitory activity (MAO-Glo Assay). An outline of the steps: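 Percent inhibition was calculated from luciferin-based luminescence, corrected with a blank lacking enzyme and a control lacking compound. The reaction ran 60 min at room temperature after adding MAO substrate (16 µM as added). This followed a 10 min compound–enzyme preincubation in HEPES pH 7.5 buffer.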

Assay [3] concerns the target T3, human LSD1(171-852) (Homo sapiens, UniProt O60341).
T3 construct: to give hLSD1(171-852) purified product; made in house; host or cells: Escherichia coli C43(DE3) pLysS
Put plainly: Measurement of LSD1 inhibitory activity (time-resolved fluorescence, biotin-histone H3 mono methylated K4 peptide). Conditions: read-out: LSD1 IC50 value.

Where a name gives a salt, the structure may show the parent alone.

With `O=C(Nc1ccc([C@@H]2C[C@H]2NC2CCN(Cc3ccccc3)CC2)cc1)c1cccc(C(F)(F)F)c1` (relative stereo) [Example 74, N-(4-{trans-2-[(1-benzylpiperidin-4-yl)amino]cyclopropyl}phenyl)-3-(trifluoromethyl)benzamide dihydrochloride], the IC50 – broadly, the point on the concentration scale where inhibition reaches its midpoint – is greater than 10 µM in assay [1], greater than 10 µM in assay [2] and less than 0.1 µM in assay [3].

Consider `O=C(Nc1ccc([C@@H]2C[C@H]2NC2CCc3ccccc32)cc1)c1ccccc1` (relative stereo) [Example 20, N-{4-[trans-2-(2,3-dihydro-1H-inden-1-ylamino)cyclo-propyl]phenyl}-benzamide], for which the concentration for half-maximal inhibition (IC50) in assay [1] was greater than 10 µM; in assay [2], greater than 10 µM; in assay [3] it was less than 0.1 µM.

As for `COCC(C)N[C@@H]1C[C@H]1c1ccc(NC(=O)c2ccc(-c3ccccc3)cc2)cc1` (relative stereo) [Example 48, N-(4-{trans-2-[(2-methoxy-1-methyl-ethyl)amino]cyclo-propyl}phenyl)-biphenyl-4-carboxamide], the results for the 50% inhibitory concentration (IC50) in assay [1], in assay [2] and in assay [3] were 4.3 µM, 3.8 µM and less than 0.1 µM, respectively.

As to `O=C(Nc1ccc([C@@H]2C[C@H]2NCCOCc2ccccc2)cc1)c1ccc(-c2ccccc2)cc1` (relative stereo) [Example 52, N-{4-[trans-2-{[2-(benzyloxy)ethyl]-amino}cyclopropyl]-phenyl}biphenyl-4-carboxamide], the IC50 is greater than 10 µM in assay [1], greater than 10 µM in assay [2] and 0.16 µM in assay [3].

On to `C=CCOC(=O)N1CCC(N[C@@H]2C[C@H]2c2ccc(NC(=O)c3ccc(-c4ccccc4)cc3)cc2)CC1` (relative stereo) [Example 55, allyl 4-{[trans-2-{4-[(biphenyl-4-yl-carbonyl)amino]-phenyl}cyclo-propyl]amino}-piperidine-1-carboxylate], for which the IC50 was greater than 10 µM in assay [1], greater than 10 µM in assay [2] and 0.13 µM in assay [3].

Turning to `O=C(Nc1ccc([C@@H]2C[C@H]2NCC2CC2)cc1)c1cccc(Cn2ccnc2)c1` (relative stereo) [Example 146, N-(4-{trans-2-[(cyclopropylmethyl)amino]cyclopropyl}phenyl)-3-(1H-imidazol-1-ylmethyl)benzamide hydrochloride], the concentration for half-maximal inhibition (IC50) is 6.7 µM in assay [1], greater than 10 µM in assay [2] and less than 0.1 µM in assay [3].

On to `CCCc1ccc(-c2ccc(C(=O)Nc3ccc([C@@H]4C[C@H]4NCC4CC4)cc3)cc2)cc1` (relative stereo) [Example 116, N-(4-{trans-2-[(cyclopropylmethyl)amino]cyclopropyl}-phenyl)-4′-propylbiphenyl-4-carboxamide], for which the half-maximal inhibitory concentration (IC50) is greater than 10 µM in assay [1], greater than 10 µM in assay [2] and 1.8 µM in assay [3].

Turning to `CN1CCC(CN[C@@H]2C[C@H]2c2ccc(NC(=O)c3cccc(C(F)(F)F)c3)cc2)CC1` (relative stereo) [Example 155, N-{4-[trans-2-{[(1-methylpiperidin-4-yl)methyl]amino}cyclopropyl]phenyl}-3-(trifluoromethyl)benzamide dihydrochloride], the values for the IC50 in assay [1], in assay [2] and in assay [3] were greater than 10 µM, greater than 10 µM and less than 0.1 µM, respectively.

For `CC1=NN(c2ccc(C(=O)Nc3ccc([C@@H]4C[C@H]4NCC4CC4)cc3)cc2)C(=O)C1` (relative stereo) [Example 86, N-(4-{trans-2-[(cyclopropylmethyl)amino]cyclopropyl}-phenyl)-4-(3-methyl-5-oxo-4,5-dihydro-1H-pyrazol-1-yl)benzamide], the IC50 was greater than 10 µM in assay [1], greater than 10 µM in assay [2] and 1 µM in assay [3].

Take `O=C(Nc1ccc([C@@H]2C[C@H]2NC2CCN(C3CC3)CC2)cc1)c1cccc(C(F)(F)F)c1` (relative stereo) [Example 111, N-(4-{trans-2-[(1-cyclopropylpiperidin-4-yl)amino]cyclopropyl}phenyl)-3-(trifluoromethyl)benzamide dihydrochloride]: the IC50 in assay [1] was greater than 10 µM; in assay [2], greater than 10 µM; in assay [3], less than 0.1 µM.

`O=C(Nc1ccc([C@@H]2C[C@H]2NCc2cn3ccsc3n2)cc1)c1cccc(C(F)(F)F)c1` (relative stereo) [Example 160, N-(4-{trans-2-[(imidazo[2,1-b][1,3]thiazol-6-ylmethyl)amino]cyclopropyl}phenyl)-3-(trifluoromethyl)benzamide dihydrochloride]: the IC50 in assay [1] is 5.1 µM; in assay [2], greater than 10 µM; in assay [3], less than 0.1 µM.

Turning to `O=C(Nc1ccc([C@@H]2C[C@H]2NCc2cccnc2)cc1)c1ccc(-c2ccccc2)cc1` (relative stereo) [Example 38, N-(4-{trans-2-[(pyridin-3-ylmethyl)amino]-cyclopropyl}-phenyl)biphenyl-4-carboxamide], the results for the IC50 in assay [1], in assay [2] and in assay [3] were 9.1 µM, greater than 10 µM and less than 0.1 µM, respectively.

For the molecule `Cc1ccc(-c2ccc(C(=O)Nc3ccc([C@@H]4C[C@H]4NCC4CC4)cc3)cc2)cc1` (relative stereo) [Example 118, N-(4-{trans-2-[(cyclopropylmethyl)amino]cyclopropyl}-phenyl)-4′-methylbiphenyl-4-carboxamide], the IC50 in assay [1] was greater than 10 µM; in assay [2], greater than 10 µM; in assay [3], 0.1 µM.

For `COc1ccc(CN[C@@H]2C[C@H]2c2ccc(NC(=O)c3ccc(-c4ccccc4)cc3)cc2)cc1` (relative stereo) [Example 43, N-(4-{trans-2-[(4-methoxybenzyl)-amino]cyclo-propyl}phenyl)-biphenyl-4-carboxamide], the 50% inhibitory concentration (IC50) in assay [1] turned out to be 3.3 µM; in assay [2] it was 4.7 µM; in assay [3], 0.11 µM.

With `O=C(Nc1ccc([C@@H]2C[C@H]2NCc2ccccc2)cc1)c1ccc(-c2ccccc2)cc1` (relative stereo) [Example 35, N-{4-[trans-2-(benzylamino)cyclopropyl]phenyl}biphenyl-4-carboxamide], the 50% inhibitory concentration (IC50) is 1.3 µM in assay [1], greater than 10 µM in assay [2] and 0.13 µM in assay [3].

For the molecule `O=C(Nc1ccc([C@@H]2C[C@H]2NCC2CC2)cc1)c1ccc(-c2ncccn2)cc1` (relative stereo) [Example 138, N-(4-{trans-2-[(cyclopropylmethyl)amino]cyclopropyl}phenyl)-4-(pyrimidin-2-yl)benzamide hydrochloride], the half-maximal inhibitory concentration (IC50) in assay [1] is greater than 10 µM; in assay [2] it was greater than 10 µM; in assay [3] it was less than 0.1 µM.

In the case of `O=C(Nc1ccc([C@@H]2C[C@H]2NCCCc2ccccc2)cc1)c1ccccc1` (relative stereo) [Example 14, N-(4-{trans-2-[(3-phenyl-propyl)amino]-cyclopropyl}-phenyl)benzamide], the half-inhibitory concentration (IC50) in assay [1] was greater than 10 µM; in assay [2] it was greater than 10 µM; in assay [3], less than 0.1 µM.

Turning to `O=C(Nc1ccc([C@@H]2C[C@H]2NCC2CC2)cc1)c1ccc(-c2ccncc2)cc1` (relative stereo) [Example 96, N-(4-{trans-2-[(cyclopropylmethyl)-amino]cyclopropyl}-phenyl)-4-(pyridin-4-yl)benzamide], the results for the IC50 in assay [1], in assay [2] and in assay [3] were greater than 10 µM, greater than 10 µM and less than 0.1 µM, respectively.

Turning to `NCCN[C@@H]1C[C@H]1c1ccc(NC(=O)c2ccc(-c3ccccc3)cc2)cc1` (relative stereo) [Example 44, N-(4-{trans-2-[(2-aminoethyl)-amino]cyclo-propyl}phenyl)-biphenyl-4-carboxamide], the results for the IC50 in assay [1], in assay [2] and in assay [3] were greater than 10 µM, 9.3 µM and less than 0.1 µM, respectively.

In the case of `O=C(Nc1ccc([C@@H]2C[C@H]2NC2CCN(Cc3ccccc3)CC2)cc1)c1ccccc1` (relative stereo) [Example 25, N-(4-{trans-2-[(1-benzyl-piperidin-4-yl)amino]cyclo-propyl}phenyl)-benzamide], the IC50 in assay [1] is greater than 10 µM; in assay [2], greater than 10 µM; in assay [3], less than 0.1 µM.
